Reference: patent US10703756B2, “Pyrrolo[2,3-D]pyrimidinyl, pyrrolo[2,3-B]pyrazinyl, pyrrolo[2,3-B]pyridinyl acrylamides and epoxides thereof” (Pfizer Inc., priority 2015, dated 2020)

Columns and labels:
JAK3 enzyme [1] = target: T1, JAK3 enzyme (Homo sapiens, UniProt P52333); assay: JAK Caliper Enzyme Assay at 4 μM ATP; type: biochemical
T1 sequence (P52333 1-1124): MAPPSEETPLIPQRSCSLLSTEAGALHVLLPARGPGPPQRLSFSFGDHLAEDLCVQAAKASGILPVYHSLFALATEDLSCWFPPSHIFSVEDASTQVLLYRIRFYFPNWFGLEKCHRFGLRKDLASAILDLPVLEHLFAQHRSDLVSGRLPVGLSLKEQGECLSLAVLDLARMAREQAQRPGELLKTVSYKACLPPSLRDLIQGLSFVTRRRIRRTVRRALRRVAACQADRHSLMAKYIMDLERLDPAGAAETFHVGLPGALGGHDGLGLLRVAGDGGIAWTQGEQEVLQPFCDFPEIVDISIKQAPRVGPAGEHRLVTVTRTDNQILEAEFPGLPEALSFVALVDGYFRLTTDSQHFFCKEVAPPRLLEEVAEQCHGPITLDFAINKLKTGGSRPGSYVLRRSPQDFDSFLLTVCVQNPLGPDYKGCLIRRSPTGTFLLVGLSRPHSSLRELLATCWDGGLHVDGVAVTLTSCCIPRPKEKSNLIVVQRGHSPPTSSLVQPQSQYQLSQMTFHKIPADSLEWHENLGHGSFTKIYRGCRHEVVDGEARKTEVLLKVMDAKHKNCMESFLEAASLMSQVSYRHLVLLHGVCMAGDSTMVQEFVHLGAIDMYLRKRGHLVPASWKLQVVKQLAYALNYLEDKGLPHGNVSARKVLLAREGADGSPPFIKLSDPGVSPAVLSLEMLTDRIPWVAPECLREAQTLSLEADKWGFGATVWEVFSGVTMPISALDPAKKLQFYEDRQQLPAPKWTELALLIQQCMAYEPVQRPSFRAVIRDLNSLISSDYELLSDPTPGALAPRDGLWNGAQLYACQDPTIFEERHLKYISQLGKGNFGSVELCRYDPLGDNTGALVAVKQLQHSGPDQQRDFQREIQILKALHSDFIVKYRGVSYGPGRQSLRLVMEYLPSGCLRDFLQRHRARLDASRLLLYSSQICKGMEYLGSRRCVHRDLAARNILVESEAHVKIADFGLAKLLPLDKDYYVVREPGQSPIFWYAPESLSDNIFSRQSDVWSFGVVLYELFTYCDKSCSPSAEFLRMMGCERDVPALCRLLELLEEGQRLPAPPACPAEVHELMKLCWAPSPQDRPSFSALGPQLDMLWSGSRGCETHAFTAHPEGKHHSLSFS
Description: (§1) Test article was solubilized in dimethyl sulfoxide (DMSO) to a stock concentration of 30 mM. An 11-point half log dilution series was created in DMSO with a top concentration of 600 μM. […] Test article and assay controls were added to a 384-well plate. […] Enzyme concentrations and incubation times were optimized for each new enzyme preps and were modified slightly over time to ensure 20%-30% phosphorylation. […] The assay plates were placed on a Caliper Life Science Lab Chip 3000 (LC3000) instrument, and each well was sampled using appropriate separation conditions to measure the unphosphorylated and phosphorylated peptide.

JAK3 enzyme [2] = target: T1, JAK3 enzyme; assay: JAK Caliper Enzyme Assay at 1 mM ATP; type: biochemical
Description: as §1

IC50 (JAK3 enzyme [1]) [nM]	IC50 (JAK3 enzyme [2]) [nM]	SMILES
28.1	3020	C=CC(=O)N1CCN(c2cnc3[nH]cc(C(=O)N[C@H](CO)C(CC)CC)c3n2)CC1(C)C [Example 137, 2-(4-acryloyl-3,3-dimethylpiperazin-1-yl)-N-[(2S)-3-ethyl-1-hydroxypentan-2-yl]-5H-pyrrolo[2,3-b]pyrazine-7-carboxamide]
46.7	4840	C=CC(=O)N1CCN(c2cnc3[nH]cc(C(=O)N[C@@H](COC)c4ccccc4)c3n2)CC1(C)C [Example 138, 2-(4-acryloyl-3,3-dimethylpiperazin-1-yl)-N-[(1R)-2-methoxy-1-phenylethyl]-5H-pyrrolo[2,3-b]pyrazine-7-carboxamide]
60.4	4430	C=CC(=O)N1CCN(c2cnc3[nH]cc(C(=O)N[C@@H]4COC[C@@H]4CC(C)C)c3n2)CC1(C)C [Example 142, 2-(4-acryloyl-3,3-dimethylpiperazin-1-yl)-N-[(3S,4R)-4-(2-methylpropyl)tetrahydrofuran-3-yl]-5H-pyrrolo[2,3-b]pyrazine-7-carboxamide]
18.4	1930	C=CC(=O)N1CCN(c2cnc3[nH]cc(C(=O)N[C@H](CO)[C@@H](C)CC)c3n2)CC1(C)C [Example 145, 2-(4-acryloyl-3,3-dimethylpiperazin-1-yl)-N-[(2S,3S)-1-hydroxy-3-methylpentan-2-yl]-5H-pyrrolo[2,3-b]pyrazine-7-carboxamide]
12.2	1370	C=CC(=O)N1CCN(c2cnc3[nH]cc(C(=O)N[C@@H](CO)c4ccc(F)cc4)c3n2)CC1(C)C [Example 146, 2-(4-acryloyl-3,3-dimethylpiperazin-1-yl)-N-[(1R)-1-(4-fluorophenyl)-2-hydroxyethyl]-5H-pyrrolo[2,3-b]pyrazine-7-carboxamide]
41.7	3710	C=CC(=O)N1CCN(c2cnc3[nH]cc(C(=O)N[C@@H](C)COc4ccccc4)c3n2)CC1(C)C [Example 147, 2-(4-acryloyl-3,3-dimethylpiperazin-1-yl)-N-[(2S)-1-phenoxypropan-2-yl] 5H-pyrrolo[2,3-b]pyrazine-7-carboxamide]
8.09	1110	C=CC(=O)N1CCN(c2cnc3[nH]cc(C(=O)N[C@H]4CCOC4)c3n2)CC1(C)C [Example 150, 2-(4-acryloyl-3,3-dimethylpiperazin-1-yl)-N-[(3S)-tetrahydrofuran-3-yl] 5H-pyrrolo[2,3-b]pyrazine-7-carboxamide]
13.6	1520	C=CC(=O)N1CCN(c2cnc3[nH]cc(C(=O)NC(C)(C)COC)c3n2)CC1(C)C [Example 151, 2-(4-acryloyl-3,3-dimethylpiperazin-1-yl)-N-(1-methoxy-2-methylpropan-2-yl)-5H-pyrrolo[2,3-b]pyrazine-7-carboxamide]
28.9	4090	C=CC(=O)N1CCN(c2cnc3[nH]cc(C(=O)N[C@@H](C)[C@H](O)c4ccccc4)c3n2)CC1(C)C [Example 156, 2-(4-acryloyl-3,3-dimethylpiperazin-1-yl)-N-[(1R,2S)-1-hydroxy-1-phenylpropan-2-yl]-5H-pyrrolo[2,3-b]pyrazine-7-carboxamide]
20.6	2900	C=CC(=O)N1CCN(c2cnc3[nH]cc(C(=O)N[C@@H](CO)Cc4cccc(C#N)c4)c3n2)CC1(C)C [Example 157, 2-(4-acryloyl-3,3-dimethylpiperazin-1-yl)-N-[(2R)-1-(3-cyanophenyl)-3-hydroxypropan-2-yl]-5H-pyrrolo[2,3-b]pyrazine-7-carboxamide]
6.31	865	C=CC(=O)N1CCN(c2cnc3[nH]cc(C(=O)N[C@@H]4COC[C@@H]4n4cc(F)cn4)c3n2)CC1(C)C [Example 159, 2-(4-acryloyl-3,3-dimethylpiperazin-1-yl)-N-[(3S,4R)-4-(4-fluoro-1H-pyrazol-1-yl)tetrahydrofuran-3-yl]-5H-pyrrolo[2,3-b]pyrazine-7-carboxamide]
4.33	463	C=CC(=O)N1CCN(c2cnc3[nH]cc(C(=O)N[C@@H]4CCO[C@H]4C)c3n2)CC1(C)C [Example 160, 3-({[2-(4-acryloyl-3,3-dimethylpiperazin-1-yl)-5H-pyrrolo[2,3-b]pyrazin-7-yl]carbonyl}amino)-2,5-anhydro-1,3,4-trideoxy-D-erythro-pentitol]
7.35	1120	C=CC(=O)N1CCN(c2cnc3[nH]cc(C(=O)N[C@H](CO)CCC)c3n2)CC1(C)C [Example 161, 2-(4-acryloyl-3,3-dimethylpiperazin-1-yl)-N-[(2S)-1-hydroxypentan-2-yl] 5H-pyrrolo[2,3-b]pyrazine-7-carboxamide]
6.19	581	C=CC(=O)N1CCN(c2cnc3[nH]cc(C(=O)N[C@@H](c4ccccc4)C(C)(C)O)c3n2)CC1(C)C [Example 162, 2-(4-acryloyl-3,3-dimethylpiperazin-1-yl)-N-[(1S)-2-hydroxy-2-methyl-1-phenylpropyl]-5H-pyrrolo[2,3-b]pyrazine-7-carboxamide]
4.61	599	C=CC(=O)N1CCN(c2cnc3[nH]cc(C(=O)N[C@H](C)COc4ccccc4)c3n2)CC1(C)C [Example 167, 2-(4-acryloyl-3,3-dimethylpiperazin-1-yl)-N-[(2R)-1-phenoxypropan-2-yl]-5H-pyrrolo[2,3-b]pyrazine-7-carboxamide]
7.76	769	C=CC(=O)N1CCN(c2cnc3[nH]cc(C(=O)N[C@@H]4COc5ccccc5C4)c3n2)CC1(C)C [Example 168, 2-(4-acryloyl-3,3-dimethylpiperazin-1-yl)-N-[(3S)-3,4-dihydro-2H-chromen-3-yl]-5H-pyrrolo[2,3-b]pyrazine-7-carboxamide]
7.31	845	C=CC(=O)N1CCN(c2cnc3[nH]cc(C(=O)N[C@H](C)COCc4ccccc4)c3n2)CC1(C)C [Example 169, 2-(4-acryloyl-3,3-dimethylpiperazin-1-yl)-N-[(2R)-1-(benzyloxy)propan-2-yl]-5H-pyrrolo[2,3-b]pyrazine-7-carboxamide]
0.993	22	C=CC(=O)N1CCC(Nc2cnc3[nH]cc(C(=O)NCc4nc5ccc(F)cc5o4)c3n2)CC1 [Example 194, 2-[(1-acryloylpiperidin-4-yl)amino]-N-[(6-fluoro-1,3-benzoxazol-2-yl)methyl]-5H-pyrrolo[2,3-b]pyrazine-7-carboxamide]
5.31	697	C=CC(=O)N1CCC(Oc2cnc3[nH]cc(C(=O)N[C@H](C(C)C)[C@@H](O)C(F)(F)F)c3n2)CC1 [Example 202, 2-[(1-acryloylpiperidin-4-yl)oxy]-N-[(2R,3R)-1,1,1-trifluoro-2-hydroxy-4-methylpentan-3-yl]-5H-pyrrolo[2,3-b]pyrazine-7-carboxamide]
4.07	538	C=CC(=O)N1CCC(Oc2cnc3[nH]cc(C(=O)NCC4(O)CCC(F)(F)CC4)c3n2)CC1 [Example 207, 2-[(1-acryloylpiperidin-4-yl)oxy]-N-[(4,4-difluoro-1-hydroxycyclohexyl)methyl]-5H-pyrrolo[2,3-b]pyrazine-7-carboxamide]
6.99	734	C=CC(=O)N1CCC(Oc2cnc3[nH]cc(C(=O)NC[C@@]4(O)CCCC[C@H]4F)c3n2)CC1 [Example 208, 2-[(1-acryloylpiperidin-4-yl)oxy]-N-{[(2R)-2-fluoro-1-hydroxycyclohexyl]methyl}-5H-pyrrolo[2,3-b]pyrazine-7-carboxamide]
